# Measured values: patent US20090306218A1, “Antimicrobial formulations” (priority 2006, published 2009)
# Where two headings read alike, the source gives them in different places.
# Columns and labels:
# [1] = test system: P. granulosum panel strains; test: Agar dilution MIC assay, panel of propionibacteria; assay type: cell-based, Propionibacterium granulosum
# [2] = test system: Propionibacterium acnes NCTC 737; test: Synergy disc diffusion assay (SDDA); assay type: cell-based; details: P. acnes NCTC 737; for SDDA with TBHQ (zone diameter): bismuth salt together with TBHQ, 200 μg of each per disc; for SDDA increase: combination with TBHQ vs the single compound with the larger zone; for SDDA area increase: combination with TBHQ
# Procedure: (e) Synergy Disc Diffusion Assay (SDDA)
# Each bismuth salt was then subjected, together with the TBHQ, to the SDDA assay described above.
# (§1) The TBHQ was dissolved in ethanol and the bismuth salts in DMSO.
# (§2) All the (S)DDA experiments were conducted in triplicate.
# (§3) DDA assays, as described above, were carried out using each of the test compounds individually. The quinone/bismuth salt combinations were then subjected to the SDDA assay described above.
# (§4) The quinones and bismuth salts were all dissolved in DMSO.
# [3] = test system: Propionibacterium acnes NCTC 737; test: Disc diffusion assay (DDA); assay type: cell-based; details: for DDA (zone of inhibition diameter): P. acnes NCTC 737; for zone of inhibition at 200 µg/disc: Cutibacterium acnes, NCTC737, read-out: DDA (zone of inhibition diameter)
# Procedure: (d) Disc Diffusion Assay (DDA)
# This is an internationally recognised standard method for qualitatively assessing the antimicrobial activity of a compound.
# A sterile paper disc was impregnated with a sample of the test compound in a suitable solvent and 30 minutes allowed for the solvents to evaporate (where possible). The disc was then placed on an agar plate onto which the test micro-organism had been inoculated. The plate was then incubated under the conditions described above, following which it was examined visually for signs of microbial growth. […] The diameter of this zone of “inhibition” was measured using a ProtoCOL™ automated zone sizer (Synbiosis, Cambridge, UK).
# as §1, §2, §3, §4
# [4] = test system: Propionibacterium acnes NCTC 737; test: Minimum bactericidal concentration (MBC) assay; assay type: cell-based; details: P. acnes NCTC 737
# Procedure: (b) Minimum Bactericidal Concentration (MBC) Assay
# (§5) MIC, MBC and DDA assays, as described above, were carried out using the test compound t-butyl-p-hydroquinone (TBHQ) and a range of bismuth salts (all ex-Sigma Aldrich, UK).
# [5] = test system: Propionibacterium acnes NCTC 737; test: Minimum inhibitory concentration (MIC) assay, liquid medium; assay type: cell-based; details: P. acnes NCTC 737
# Procedure: (a) Minimum Inhibitory Concentration (MIC) Assay
# This is a standard international method for quantitatively assessing the antimicrobial activity of a compound in a liquid medium. The method used a sterile 96-well microtitre plate, capable of holding about 200 μl of liquid per well. […] The culture medium was as described above.
# After incubation, the microtitre plate was examined visually (with the aid of a light box) for cloudiness in each well, which would indicate microbial growth. The MIC value was recorded as the lowest concentration of test compound required to inhibit microbial growth, i.e., the lowest concentration for which the liquid in the well remained clear.
# The assays were conducted in duplicate (minimum) and included both negative (culture medium with no micro-organisms) and positive (culture medium plus diluting solvent plus micro-organism) controls.
# as §5
# [6] = test system: P. acnes PRP panel strains; assay type: cell-based, Propionibacterium acnes
# [7] = P. granulosum NCTC 11865, resistance phenotype None
# [8] = P. granulosum PRP-005, resistance phenotype MLSK
# [9] = P. granulosum PRP-006, resistance phenotype MLS
# [10] = P. granulosum PRP-019, resistance phenotype MLSK
# [11] = P. granulosum PRP-021, resistance phenotype MLS
# [12] = P. granulosum PRP-043, resistance phenotype MLS
# [13] = P. granulosum PRP-044, resistance phenotype MLS
# [14] = P. granulosum PRP-055, resistance phenotype None
# [15] = 200 μg per disc (2-t-butyl-p-benzoquinone 100 μg per disc), in DMSO, Table 5
# [16] = P. acnes PRP-002, resistance phenotype Tet/MLS
# [17] = P. acnes PRP-003, resistance phenotype Tet
# [18] = P. acnes PRP-004, resistance phenotype Tet
# [19] = P. acnes PRP-007, resistance phenotype Clin
# [20] = P. acnes PRP-008, resistance phenotype Clin
# [21] = P. acnes PRP-010, resistance phenotype MLSK
# [22] = P. acnes PRP-017, resistance phenotype MLS
# [23] = P. acnes PRP-023, resistance phenotype MLSK
# [24] = P. acnes PRP-026, resistance phenotype MLS
# [25] = P. acnes PRP-039, resistance phenotype Tet/MLS
# [26] = P. acnes PRP-046, resistance phenotype None
# [27] = P. acnes PRP-053, resistance phenotype Tet/MLS
# [28] = P. acnes PRP-059, resistance phenotype MLS
# [29] = P. acnes PRP-068, resistance phenotype Ery
# [30] = P. acnes PRP-101, resistance phenotype Tet/MLS
# [31] = P. acnes PRP-102, resistance phenotype Tet/MLS
smiles,measurement,setting,value
O=C([O-])CC(O)(CC(=O)[O-])C(=O)[O-].[Bi+3] [Bismuth citrate],MIC (agar dilution),[1]; [7],7.8 µg/mL
same,MIC (agar dilution),[1]; [8],7.8 µg/mL
same,MIC (agar dilution),[1]; [9],7.8 µg/mL
same,MIC (agar dilution),[1]; [10],7.8 µg/mL
same,MIC (agar dilution),[1]; [11],7.8 µg/mL
same,MIC (agar dilution),[1]; [12],3.9 µg/mL
same,MIC (agar dilution),[1]; [13],7.8 µg/mL
same,MIC (agar dilution),[1]; [14],7.8 µg/mL
same,SDDA with TBHQ (zone diameter),[2]; Table 2,43.41 mm
same,SDDA increase,[2]; Table 2,8.94 mm
same,SDDA area increase,[2]; Table 2,58.59%
same,DDA (zone of inhibition diameter),[3]; [15],32.97 mm
same,DDA (zone of inhibition diameter),"[3]; 200 μg per disc, Table 2",34.47 mm
same,MBC,[4]; Table 1,7.8 µg/mL
same,MIC/MBC ratio,[4]; Table 1,0.125
same,MIC,[5]; Table 1,0.98 µg/mL
same,MIC (agar dilution),[6]; [16],7.8 µg/mL
same,MIC (agar dilution),[6]; [17],3.9 µg/mL
same,MIC (agar dilution),[6]; [18],7.8 µg/mL
same,MIC (agar dilution),[6]; [19],3.9 µg/mL
same,MIC (agar dilution),[6]; [20],3.9 µg/mL
same,MIC (agar dilution),[6]; [21],7.8 µg/mL
same,MIC (agar dilution),[6]; [22],3.9 µg/mL
same,MIC (agar dilution),[6]; [23],3.9 µg/mL
same,MIC (agar dilution),[6]; [24],3.9 µg/mL
same,MIC (agar dilution),[6]; [25],0.98 µg/mL
same,MIC (agar dilution),[6]; [26],3.9 µg/mL
same,MIC (agar dilution),[6]; [27],3.9 µg/mL
same,MIC (agar dilution),[6]; [28],7.8 µg/mL
same,MIC (agar dilution),[6]; [29],7.8 µg/mL
same,MIC (agar dilution),[6]; [30],7.8 µg/mL
same,MIC (agar dilution),[6]; [31],7.8 µg/mL
[Cl][Bi]([Cl])[Cl] [Bismuth chloride],SDDA with TBHQ (zone diameter),[2]; Table 2,31.64 mm
same,SDDA increase,[2]; Table 2,5.57 mm
same,SDDA area increase,[2]; Table 2,47.29%
same,DDA (zone of inhibition diameter),"[3]; 200 μg per disc, Table 2",26.07 mm
same,MBC,[4]; Table 1,3.9 µg/mL
same,MIC/MBC ratio,[4]; Table 1,0.125
same,MIC,[5]; Table 1,0.49 µg/mL
CC1=CC(=O)C=CC1=O [Methyl-p-benzoquinone],zone of inhibition at 200 µg/disc,[3],39.9 mm
CC(=O)[O-].CC(=O)[O-].CC(=O)[O-].[Bi+3] [Bismuth acetate],SDDA with TBHQ (zone diameter),[2]; Table 2,34.89 mm
same,SDDA increase,[2]; Table 2,6.72 mm
same,SDDA area increase,[2]; Table 2,53.4%
same,DDA (zone of inhibition diameter),"[3]; 200 μg per disc, Table 2",28.17 mm
same,MBC,[4]; Table 1,7.8 µg/mL
same,MIC/MBC ratio,[4]; Table 1,0.125
same,MIC,[5]; Table 1,0.98 µg/mL
O=C1C=CC(=O)C(Cl)=C1 [2-chloro-p-benzoquinone],zone of inhibition at 200 µg/disc,[3],25.4 mm
CC(C)(C)C1=CC(=O)C=CC1=O [2-t-butyl-p-benzoquinone],DDA (zone of inhibition diameter),[3]; [15],52.61 mm
O=[N+]([O-])[O-].O=[N+]([O-])[O-].O=[N+]([O-])[O-].O=[N+]([O-])[O-].[Bi+3].[Bi+3].[Bi+3].[Bi+3].[Bi+3].[O-2].[OH-].[OH-].[OH-].[OH-].[OH-].[OH-].[OH-].[OH-].[OH-] [Bismuth subnitrate],MIC (agar dilution),[1]; [7],7.8 µg/mL
same,MIC (agar dilution),[1]; [8],7.8 µg/mL
same,MIC (agar dilution),[1]; [9],7.8 µg/mL
same,MIC (agar dilution),[1]; [10],7.8 µg/mL
same,MIC (agar dilution),[1]; [11],7.8 µg/mL
same,MIC (agar dilution),[1]; [12],7.8 µg/mL
same,MIC (agar dilution),[1]; [13],7.8 µg/mL
same,MIC (agar dilution),[1]; [14],7.8 µg/mL
same,SDDA with TBHQ (zone diameter),[2]; Table 4,30.39 mm
same,SDDA increase,[2]; Table 4,5.48 mm
same,SDDA area increase,[2]; Table 4,48.84%
same,DDA (zone of inhibition diameter),[3]; [15],24.91 mm
same,DDA (zone of inhibition diameter),"[3]; 200 μg per disc, separate experiment, Table 4",24.91 mm
same,MBC,"[4]; separate experiment, Table 3",7.8 µg/mL
same,MIC/MBC ratio,"[4]; separate experiment, Table 3",0.5
same,MIC,"[5]; separate experiment, Table 3",3.9 µg/mL
same,MIC (agar dilution),[6]; [16],7.8 µg/mL
same,MIC (agar dilution),[6]; [17],7.8 µg/mL
same,MIC (agar dilution),[6]; [18],7.8 µg/mL
same,MIC (agar dilution),[6]; [19],7.8 µg/mL
same,MIC (agar dilution),[6]; [20],7.8 µg/mL
same,MIC (agar dilution),[6]; [21],7.8 µg/mL
same,MIC (agar dilution),[6]; [22],7.8 µg/mL
same,MIC (agar dilution),[6]; [23],7.8 µg/mL
same,MIC (agar dilution),[6]; [24],7.8 µg/mL
same,MIC (agar dilution),[6]; [25],7.8 µg/mL
same,MIC (agar dilution),[6]; [26],7.8 µg/mL
same,MIC (agar dilution),[6]; [27],7.8 µg/mL
same,MIC (agar dilution),[6]; [28],7.8 µg/mL
same,MIC (agar dilution),[6]; [29],7.8 µg/mL
same,MIC (agar dilution),[6]; [30],7.8 µg/mL
same,MIC (agar dilution),[6]; [31],7.8 µg/mL
